As a reminder, the IC50 is the midpoint of a concentration-inhibition curve. High values mean lower potency, low ones higher potency.

Residues, ends and D or L forms follow the SMILES beside them. No end group written: not given here.

Common to all, as to format: cell-based
Data set [1] deals with MDRAB (multidrug-resistant Acinetobacter baumannii). The settings on record: MDRAB (multidrug-resistant, 2 h). As for the experimental part: (§1) The antimicrobial activities of dK1, dK2, dK3, dK4 and dK5 were determined by bactericidal assays on laboratory strains of MRSA (methicillin-resistant Staphylococcus aureus) and MDRAB (multidrug-resistant Acinetobacter baumannii).
(§2) The bacteria were inoculated in Luria broth (LB) solid medium (BioShop Canada Inc., Ontario, Canada) (Focus Bioscience, Murrarrie, Australia). Single colonies were collected and inoculated in 8 mL of liquid medium, and the cultures were incubated overnight at 37° C., 200 rpm. On the next day, the bacterial cultures were centrifuged with a centrifuger (KUBOTA2800, KUBOTA, Osakashi, Japan) at 2500 rpm for 5 minutes at room temperature, and the supernatants were discarded. The pellets were mixed and suspended with 1×PBS (phosphate-buffered saline, PBS, pH 7.4) (PROTECH, Taipei, Taiwan). The step was repeated twice to wash the bacterial cells. After the washing step, the bacterial cells were then re-suspended in 1×PBS, and the concentrations of bacterial cells were adjusted to 1×10^7 CFU/mL.
(§3) In the bactericidal assay, 2700 μL of 1× PBS were mixed with 300 μL 1×10^7 CFU/mL bacteria suspension mentioned as negative control, and each of the solutions of dK1 to dK5 at different concentrations was mixed with 300 μL 1×10^7 CFU/mL bacteria suspension and 2700 μL of 1× PBS. The mixtures were incubated at 37° C., 200 rpm for 2 hours. After incubation, 100 μL of each of the control group samples and the experimental group samples were collected and put in Eppendorf centrifuge tubes, and followed by 10-fold serial dilution with 900 μL of 1× PBS. After the serial dilution, 100 μL of the sample from each group was inoculated on the LB solid medium. The experiments were carried out in triplicate for each group, and the LB solid media with samples were cultured at 37° C. for at least 18 hours. After overnight incubation at 37° C., bacterial colonies were counted. Bacterial survival rates of each group were determined as follows. % survival rate=[(Colonies formed from peptide-treated sample)/(Colonies formed from negative control)]×100%

Data set [2] has as its system MRSA (methicillin-resistant Staphylococcus aureus). The settings on record: 2 h. As for the experimental part: as §1, §2, §3
The nature of the next data set: in vitro. The settings on record: human. On the procedure:
For measuring the cytotoxicity of the antimicrobial peptides dK1, dK2 and dK3, a colorimetric 3-bis-(2-methoxy-4-nitro-5-sulfophenyl)-2H-tetrazolium-5-carboxanilide (XTT) dye reduction assay was employed. The cytotoxicity of the antimicrobial peptides of the invention were tested on Huh-7 and HeLa cells. The culture medium for Huh-7 is Dulbecco's modified eagle medium, DMEM (Gibco™, NY, USA) containing 10% fetal bovine serum (FBS) (Gibco™, NY, USA) 1% non-essential amino acid solution (NEAA) (Biological Industries, Beit HaEmek, Israel) and 1% streptomycin-penicillin solution (Gibco™, NY, USA). The culture medium for HeLa cells is Minimum Essential Medium (MEM) (Gibco™, NY, USA) containing 10% FBS (Gibco™, NY, USA), 1% sodium pyruvate (Gibco™, NY, USA), 1% NEAA (Biological Industries, Beit HaEmek, Israel) and 1% streptomycin-penicillin (Gibco™, NY, USA). […] The absorbance of the samples was measured at the 4th hour, and cell viability calculated to evaluate the cytotoxicity of the antimicrobial peptides. The absorbance of the samples was measured with an ELISA reader (EPOCH™, BioTek instruments, Inc., Winooski, USA) at a wavelength of 475 nm. The absorbance value of the positive control group was regarded as 0% cell viability, and the absorbance value of the negative control group was regarded as 100% cell viability. […]

For the compound `CC(C)C[C@H](NC(=O)[C@H](CCCCN)NC(=O)[C@@H]1CCCN1C(=O)CNC(=O)[C@H](Cc1ccccc1)NC(=O)[C@H](CCCCN)NC(=O)[C@H](C)NC(=O)[C@@H]1CCCN1C(=O)[C@H](Cc1ccccc1)NC(=O)[C@H](CO)NC(=O)[C@H](C)NC(=O)[C@@H]1CCCN1C(=O)[C@H](CC(C)C)NC(=O)[C@@H](N)Cc1ccccc1)C(=O)N[C@@H](Cc1ccccc1)C(=O)N[C@@H](CS)C(=O)N[C@@H](CC(C)C)C(=O)N[C@H](C(=O)N[C@H](C(=O)N[C@@H](CCCCN)C(=O)N[C@@H](CCCCN)C(=O)N[C@@H](CS)C(=O)O)[C@@H](C)O)C(C)C` [dK4] (H-FLPASFPAKFGPKLFCLVTKKC-OH; N-terminus and C-terminus assumed), in data set [1], the 50% inhibitory concentration (IC50) lay in the range of 8000 to 10000 nM.
For FLAIPSKPLKVAKPLGFALIIL [dK5], in data set [1], the concentration for half-maximal inhibition (IC50) is 20000 to 25000 nM. Besides, in data set [2], the IC50 fell in the range of 10000 to 15000 nM and the “MBC (minimum bactericidal concentration) against MRSA” value (“MBC … against MRSA” below) lay within 30 to 40 µM.
For IVRRIWRAWARRVRLVARIPAV [dK1], in data set [1], the half-maximal inhibitory concentration (IC50) was around 167 nM and the “MBC (minimum bactericidal concentration) against MDRAB” value (“MBC … against MDRAB” below) fell in the range of 0.667 to 1.33 µM. In data set [2], the concentration for half-maximal inhibition (IC50) was around 195 nM and the “MBC … against MRSA” value was 0.39 to 0.78 µM.
As to RLIAAWRAVIRARVRARRAPIF [dK2], in data set [1], the IC50 lay within 200 to 250 nM and the “MBC … against MDRAB” value lay within 0.5 to 0.6 µM. In data set [2], the IC50 is around 390 nM and the “MBC … against MRSA” value was in the range of 1.56 to 3.12 µM.
With RPFIVRAWRRAVARRARAILPI [dK3], in data set [1], the concentration for half-maximal inhibition (IC50) was in the range of 195 to 390 nM and the “MBC … against MDRAB” value fell in the range of 0.78 to 1.56 µM. Further, in data set [2], the concentration for half-maximal inhibition (IC50) is 1560 to 3120 nM and the “MBC … against MRSA” value was 3.12 to 4.5 µM. The cytotoxicity at 4 h, 2 μM in “in vitro” was 50%.

Values taken from US12129279B2, “Antimicrobial peptides and use of the same for treating microbial infections” (TZU CHI UNIVERSITY, priority 2022, dated 2024).
